The values that follow come from US11648289B2, “Antibacterial method” (priority 2016, dated 2023).

No end group written: not given here. Bounds are passed on as bounds.

One assay has as its system SH 4016. The assay is described as follows: microbe, parasite or virus in culture. As to conditions: SH 4016 (S. haemolyticus). The protocol:
(§1) All the strains (see below) used in minimal inhibitory concentration (MIC) assays (Ovchinnikov et al., 2017, Front Microbiol., 8, p774, doi:10.3389/fmicb.2017.00774) were grown in BHI medium (Oxoid) at 30° C. without shaking. The tested strains were obtained from the LMG collection. […] NisinZ and micrococcin P1 were purified from source. Synthesized peptides were solubilized to concentrations of 10.0-0.1 mg/ml in 0.1% (vol/vol) trifluoroacetic acid and stored at −20° C. until use. Garvicin KS is made up of 3 peptides:
(§2) Bacteriocin activity was determined using a microtitre plate assay. The plates were incubated at 30° C. for 8 h and the growth was measured spectrophotometrically at 600 nm (A600) with 15 min intervals using SPECTROstarNano (BMG LABTECH, Germany). The MIC was defined as the bacteriocin concentration that inhibited the growth of the indicator strain by at least 50% in 200 μl culture (i.e., 50% of the turbidity of the control culture without bacteriocin).

In a further assay the test system is Sa 3328. The assay can be described thus: microbe, parasite or virus in culture. As to conditions: Sa 3328 (S. aureus). The method, then:
as §1, §2

The subject of another assay is Sa3323. The assay is described as follows: microbe, parasite or virus in culture. Particulars: Sa3323 (S. aureus). The protocol: as §1, §2
In the next assay the test system is Sa ATCC 33591. The assay can be described thus: microbe, parasite or virus in culture. Particulars: Sa ATCC 33591 (S. aureus). The protocol:
as §1, §2

The test system of another assay is Sa3324. The assay is described as follows: microbe, parasite or virus in culture. Particulars: Sa3324 (S. aureus). The method, then:
as §1, §2

The test system of another assay is Sa 3242. The assay can be described thus: microbe, parasite or virus in culture. Particulars: Sa 3242 (S. aureus). The method, then: as §1, §2
A further assay concerns SH 4015. The assay can be described thus: microbe, parasite or virus in culture. Particulars: SH 4015 (S. haemolyticus). The protocol: as §1, §2
The subject of another assay is KAVA. The assay is described as follows: MIC microtitre plate assay, pathogenic isolates. The class given is cell-based. As to conditions: KAVA. The method, then:
The tested strains were obtained from the LMG collection. […] NisinZ and micrococcin P1 were purified from source. […] Garvicin KS is made up of 3 peptides:
Bacteriocin activity was determined using a microtitre plate assay. The plates were incubated at 30° C. for 8 h and the growth was measured spectrophotometrically at 600 nm (A600) with 15 min intervals using SPECTROstarNano (BMG LABTECH, Germany).

Regarding “MLAKIKAMIKKFPNPYTLAAKLTTYEINWYKQQYGRYPWERPVA [EntEJ97]”, the MIC against SH 4016 is 12.5 µg/mL; in the assay with Sa 3328, 6.25 µg/mL; with Sa3323, 6.25 µg/mL; in the assay on Sa ATCC 33591 it was above 50 µg/mL; against Sa3324, 12.5 µg/mL; against Sa 3242 it was 6.25 µg/mL. Further, the MIC in the assay with SH 4015 was 12.5 µg/mL; in the assay with KAVA it was above 50 µg/mL.
